This data set is described as follows: gradient 5% acetonitrile 3 min, to 50% in 2 min, to 85% in 15 min, held 3 min, 100 µL/min. The note with it: column: Zorbax Extend-C18 2.1 x 50 mm; eluents: water / acetonitrile, 0.1% formic acid. Put shortly:
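Retention times of pure standards were taken from adduct peaks that were selected by computer and manually inspected. Over 3 months, mixtures of ~100 molecules were run by HPLC–quadrupole time-of-flight mass spectrometry in positive and negative ionization mode. The Zorbax Extend-C18 column (2.1 × 50 mm, 1.8 μm) ran at 100 μL/min in water and acetonitrile, each containing 0.1% formic acid, with 40 μL dead volume and 900 μL dwell volume.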
`Cc1nsc2ncc(C(=O)N3CCOCC3)c(N3CCC(C(=O)Nc4ccccc4F)CC3)c12` had an RP-LC retention time of 758 s.
The compound `CCOC(=O)c1c(C)[nH]c(C(=O)N2CCC(CC(=O)NC3CCCCC3)CC2)c1C` had an RP-LC retention time of 778 s.
`COCC(=O)Nc1cc(-c2nc3ccc(C)cc3[nH]2)ccc1C` displayed an RP-LC retention time of 620 s.
With `COc1ccc(CNC(=O)C2CCN(c3nccn4nc(-c5cccs5)cc34)CC2)cc1` the figure was 754 s.
With `O=C(NCCOc1ccccc1)Nc1cccs1`, the RP-LC retention time amounted to 755 s.
With `O=C(NCCn1c(-c2ccccc2)nc2cccnc21)NCc1ccc(F)cc1` the figure was 684 s.
With `CCNC(=O)N1CCCC(c2cccc(C(=O)NCC3CCCCC3)c2)C1` (stereo not given) the figure was 891 s; with `Cc1nc(-c2cc(S(=O)(=O)NCCCN3CCCC(C)C3)c(C)s2)sc1C` (stereo not given), 704 s; with `Cc1nnc(CNC(=O)CCc2c[nH]c3ccccc23)o1`, 622 s.
To `Cc1nc(-c2nnc(NC(=O)C3CCN(S(C)(=O)=O)CC3)o2)cs1` belongs 572 s; to `COCC(=O)N1CCc2c([nH]c3ccccc23)C1c1ccccc1` (stereo not given), 935 s.
As to `COc1ccc(OC)c(NC(=O)N2CCCC2c2nc(-c3ccccc3OC)no2)c1` (stereo not given), the RP-LC retention time was 906 s.
With `O=C(C1=NN(CCc2ccccc2)c2cc(Cl)ccc2S1(=O)=O)N1CCOCC1` the figure was 906 s; with `Cc1nn(C)c2c(=O)n(CC(=O)NCc3ccc(Br)cc3)ccc12`, 745 s.
With `COc1ccc(Cl)c2c(=O)c3c([nH]c12)CCN(CC(=O)NCc1ccc(F)cc1)C3` the figure was 612 s; with `Cc1c(C(=O)N(C)C)sc2nc(-c3ccccc3)c(NC(C)(C)C)n12`, 763 s.
To `Cc1cc(Oc2ncnc3c2cnn3-c2ccc(Cl)cc2)ccc1[N+](=O)[O-]` belongs 1270 s; to `Cc1cc(N2CCOCC2)nc(N2CCN(C(=O)c3ccc(C(C)(C)C)cc3)CC2)n1`, 723 s.
In turn, `COc1cc(NC(=O)Cn2ccc3sc(C)cc3c2=O)cc(OC)c1` came in with an RP-LC retention time of 795 s.
To `Cc1ccc(-n2ncc3c(NCCN4CCOCC4)ncnc32)cc1Cl` belongs 613 s.
Turning to `CCOC(=O)Cn1cccc(S(=O)(=O)N2CCCCCC2)c1=O`, the RP-LC retention time came to 831 s.
To `COc1cccc(CNC(=O)Cc2csc3nc(-c4ccc(OC)c(OC)c4)cn23)c1` belongs 698 s.
To `CCOc1ccc(NS(=O)(=O)c2cc(-c3c(CC)noc3NC(C)=O)ccc2OC)cc1` belongs 791 s.
To `O=C(NCCc1ccco1)C1CCN(Cc2cc3ccccc3n2Cc2cccc(Cl)c2)CC1` belongs 813 s; to `CCOCCCNC(=O)c1c(N2CCCC2=O)c2cc(OC)ccc2n1CC`, 761 s; to `CC(C)NC(=O)CN1CCN(C(=O)Nc2ccc(Cl)cc2)CC1=O`, 669 s.
`O=C(NCCOc1ccccc1)C(=O)c1c[nH]c2ccccc12` returned an RP-LC retention time of 886 s.
The compound `Cc1nnc(C2CCCCCN2C(=O)c2cn[nH]c2)o1` (stereo not given) came in with an RP-LC retention time of 597 s.
With `Cc1cc(C)cc(-c2nc(-c3cccc(-c4ccn[nH]4)c3)no2)c1` the figure was 999 s; with `CCNC(=O)CCc1nc2ccccc2n(CC(=O)Nc2cc(OC)cc(OC)c2)c1=O`, 737 s.
To `COC(=O)CN1N=C(C(=O)N2CCC(C)CC2)S(=O)(=O)c2ccccc21` belongs 825 s; to `CNC(=O)C1=CCN(C(=O)c2ccc(F)cc2F)CC1`, 644 s.
Compound `O=C(Nc1nnc(SCc2nnc(-c3ccccc3)o2)s1)c1ccccc1` gave an RP-LC retention time of 866 s.
To `COCCCNC(=O)c1ccc2cnn(Cc3ccc(Cl)cc3)c2c1` belongs 812 s.
For `Cc1ccc(C)c(NC(=O)CSc2ccc(N3CCCC(C(=O)NC4CC4)C3)nn2)c1` (stereo not given), the RP-LC retention time came to 681 s.
To `O=C(Cc1ccccc1F)N1CCc2cc(-c3ccno3)ccc21` belongs 961 s; to `COc1ccc(C2(c3nc(C4CC(=O)N(c5ccc(C)cc5)C4)no3)CC2)cc1` (stereo not given), 1060 s; to `O=C(NCc1cccc2ccccc12)C(=O)c1c[nH]c2ccccc12`, 1010 s.
In turn, `CCOc1ccc(-c2ccc(=O)n(CCc3nc(-c4ccc(F)cc4)no3)n2)cc1` returned an RP-LC retention time of 815 s.
With `Cc1nnc(-c2cn(CC(=O)Nc3ccccc3F)c3ccccc23)o1` the figure was 799 s; with `CCc1nn(C)c(=O)c2cc(S(=O)(=O)NCc3ccccc3)cn12`, 831 s.
For `CCN1CCC(N(Cc2ccc3c(c2)OCO3)C(=O)Nc2ccc(F)cc2)CC1`, the RP-LC retention time was determined as 656 s.
To `O=C(CS(=O)Cc1ccco1)NC/C=C\COc1cc(CN2CCCCC2)ccn1` (stereo not given) belongs 632 s; to `Cc1nc(-c2cn(C)c3ncccc23)sc1C(=O)NC1CCCCCC1`, 995 s; to `Cn1c(=O)c(N2CCC(NC(=O)Nc3ccccc3Cl)CC2)nc2ccccc21`, 904 s.
To `Cc1cccc(-n2cc(C(=O)OCc3cc(=O)n4ccccc4n3)c3ccccc3c2=O)c1` belongs 906 s; to `CCCc1noc(-c2cccnc2N2CCCN(Cc3ccccc3F)CC2)n1`, 701 s.
With `CC(NC(=O)Cc1cccn1-c1ccc(F)cc1)c1ccccc1` (stereo not given) the figure was 962 s; with `CC(C)CN1CCn2cc(S(=O)(=O)Nc3ccc(Cl)cc3)cc2C1=O`, 848 s; with `O=C(CSc1ccc(N2CCCC(C(=O)NC3CC3)C2)nn1)NCc1cc(F)cc(F)c1` (stereo not given), 642 s.
As to `Cc1ccc(-c2cn3c(CC(=O)NCCCc4ccccc4)csc3n2)cc1C`, the RP-LC retention time is 887 s.
To `CN1CCN(C(=O)C2CCN(S(=O)(=O)c3cc(C(=O)N4CCCCCC4)cs3)CC2)CC1` belongs 619 s; to `Cc1cc(OCC(O)Cn2c(C3CC(=O)N(C(C)(C)C)C3)nc3ccccc32)cc(C)c1Cl` (stereo not given), 878 s; to `Cc1sc(-c2noc(C3CC3)n2)cc1S(=O)(=O)N1CCC(C(=O)N2CCOCC2)CC1`, 853 s.
To `CCOC(=O)c1cccc(Nc2c(-c3ccc(SC)cc3)nc3cnccn23)c1` belongs 950 s; to `C=CCn1c(=O)c2ccccc2n(Cc2nc(-c3cccc(C(F)(F)F)c3)no2)c1=O`, 1110 s; to `Fc1ccc(OCc2nc(-c3cccc(-c4csc(C5CC5)n4)c3)no2)cc1`, 1290 s.
Take `CC1CCCN(c2ccn3c(=O)n(CC(=O)NCc4ccc(F)cc4)nc3n2)C1` (stereo not given): the RP-LC retention time was found to be 804 s.
With `COc1cccc(-c2nc3ccc(Cl)cn3c2Nc2ccc(Cl)cc2)c1` the figure was 873 s; with `Cc1noc(C)c1-c1ccc(S(=O)(=O)N2CCc3ccccc3C2)cc1`, 1050 s.

The values are drawn from the METLIN SMRT retention time set (Domingo-Almenara et al. 2019).
